The source of these data is US11124498B2, “Compositions and methods for modulating protease activity” (THE REGENTS OF THE UNIVERSITY OF CALIFORNIA, priority 2016, dated 2021).

One test concerns the target T1, cathepsin L (Homo sapiens, UniProt P07711).
T1 construct: purchased R&D Systems
The test can be described thus: in vitro protease inhibition assay, cathepsin L. The class given is biochemical. The note with it: z-FR-AMC substrate, MES buffer pH 5.5. Here is the method:
(§1) Protease Inhibition Assays. Detailed information about synthesis of N-Boc-protected peptidyl aldehydes and their deprotection for protease inhibition activity tests are available in the Extended Experimental Procedures. For protease inhibition assays, all fluorescence measurements were made on a Biotek H4 instrument. Buffering reagents were purchased from Sigma-Aldrich and sterile-filtered prior to use. Compounds and substrates were diluted from DMSO stocks into water/DMSO such that final DMSO plate concentrations were below 5% during the reaction. All reactions were started by the addition of substrate to the enzyme/compound solutions (see also Extended Experimental Procedures).
Deprotection of Boc-protected dipeptide aldehyde compounds. All the deprotection experiments were performed in an anaerobic chamber. Trifluoroacetic acid (TFA) was added to the purified Boc-protected dipeptidyl aldehydes. 1 μL of the reaction was added to 100 μL 80% DMSO in ddH2O and a 0.5 μL portion of the solution was examined by an Agilent 6530 qTOF LC/MS. For preparing dipeptide aldehyde solution for protease inhibition assays, the deprotection reaction was left at 30° C. for 15 mins. Then ddH2O was added to quench the reaction and give a 2.5 mM peptidyl aldehydes in 1% TFA solution. Some side products like isobutylene and their corresponding imine and pyrazinone products have poor water solubility. […]

The target in another test is T2, cathepsin S (Homo sapiens, UniProt P25774).
T2 construct: purchased R&D Systems
The test can be described thus: in vitro protease inhibition assay, cathepsin S. The class given is biochemical. The note with it: z-FR-AMC substrate, MES buffer pH 5.5, read-out: activity against cathepsin S. Here is the method:
as §1
Detailed procedures for protease inhibition assays. Enzymes: cathepsin L, cathepsin B, cathepsin C and cathepsin S were purchased from R&D Systems trypsin, chymotrypsin and calpain I were purchased from Sigma-Aldrich. Calpain I was also purchased from Abcam. Human 20s proteasome was purchased from Boston Biochem.
Substrates: z-FR-AMC, Boc-IEGR-AMC, Suc-ALPF-AMC and GR-AMC were purchased from Bachem. Suc-LLVY-AMC was purchased from Anaspec. Substrates were used without further purification.
Inhibitors: Carfilzomib was a generous gift from Onyx Pharmaceuticals and was used as a positive control in the proteasome inhibition assay. […]

The target in the next test is T3, cathepsin Z (CTSZ) (Homo sapiens, UniProt Q9UBR2).
T3 construct: We treated membrane preparations of the human innate immune (monocytic) cell line THP-1 with the bgc35 product Phe-Phe-H; endogenous in cells; host or cells: THP-1 membrane fraction
Description: competitive isoTOP-ABPP, blockade of IA-alkyne labeling, cathepsin Z. The class given is binding. The text has this:
(§2) The proteases we assayed were chosen based on literature precedent. To determine the target of the peptide aldehydes in an unbiased way, we applied a quantitative chemical proteomic method, termed isoTOP-ABPP (Weerapana et al. 2010, Backus et al., 2016) to measure the global interactions of a representative dipeptide aldehyde, bgc35 product Phe-Phe-H, with cysteine residues in the human cell lysates. We treated membrane preparations of the human innate immune (monocytic) cell line THP-1 with the bgc35 product Phe-Phe-H or vehicle, and then these samples were treated with a cysteine reactive iodoacetamide-alkyne (IA-alkyne) probe and conjugated to an isotopically differentiated (heavy or light, respectively) TEV protease-cleavable biotin tag using copper-catalyzed azide-alkyne cycloaddition (CuAAC or click) chemistry. Vehicle- and peptide-treated samples were then combined, enriched, subjected to sequential trypsin and TEV digests and evaluated by LC-MS/MS. Site-specific blockade of IA-alkyne labeling as measured by quantitation of heavy/light MS1 chromatographic peaks designates cysteine residues that are targeted by Phe-Phe-H (heavy/light ratios, or R values>5; line, FIG. 3D). […]

A further test addresses T4, cathepsin B (CTSB) (Homo sapiens, UniProt P07858).
T4 construct: We treated membrane preparations of the human innate immune (monocytic) cell line THP-1 with the bgc35 product Phe-Phe-H; endogenous in cells; host or cells: THP-1 membrane fraction
Description: competitive isoTOP-ABPP, blockade of IA-alkyne labeling, cathepsin B. The class given is binding. The note with it: THP-1 membranes, 250 nM Phe-Phe-H.
Source text: as §2

A further test has as its target T5, cathepsin H (CTSH) (Homo sapiens, UniProt P09668).
T5 construct: We treated membrane preparations of the human innate immune (monocytic) cell line THP-1 with the bgc35 product Phe-Phe-H; endogenous in cells; host or cells: THP-1 membrane fraction
T5 sequence (P09668 98-335): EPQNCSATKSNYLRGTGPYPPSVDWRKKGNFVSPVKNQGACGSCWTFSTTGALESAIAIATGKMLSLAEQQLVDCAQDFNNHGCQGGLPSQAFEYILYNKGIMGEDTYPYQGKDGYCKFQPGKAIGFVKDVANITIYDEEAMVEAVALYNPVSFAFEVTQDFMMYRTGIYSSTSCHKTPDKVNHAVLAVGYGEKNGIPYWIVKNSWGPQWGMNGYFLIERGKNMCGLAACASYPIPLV
Description: competitive isoTOP-ABPP, blockade of IA-alkyne labeling, cathepsin H. The class given is binding. Particulars: THP-1 membranes, 250 nM Phe-Phe-H.
Source text: as §2

Test [1] deals with more than 3500 total quantified cysteines across three different human cell proteomes. The test can be described thus: competitive isoTOP-ABPP, proteome-wide selectivity over non-cathepsin cysteines. The class given is binding. The note with it: more than 3500 quantified cysteines, no additional targets.
Source text: as §2

Another test deals with T6, cathepsin C (CTSC) (Homo sapiens, UniProt P53634).
T6 construct: endogenously expressed CTSC is post-translationally regulated; endogenous in cells; host or cells: THP-1 membrane fraction
Description: competitive isoTOP-ABPP, blockade of IA-alkyne labeling, cathepsin C. The class given is binding.
Source text: as §2

Another test addresses T7, cathepsin S (CTSS) (Homo sapiens, UniProt P25774).
T7 construct: We treated membrane preparations of the human innate immune (monocytic) cell line THP-1 with the bgc35 product Phe-Phe-H; endogenous in cells; host or cells: THP-1 membrane fraction
Description: competitive isoTOP-ABPP, blockade of IA-alkyne labeling, cathepsin S. The class given is binding.
Source text: as §2

For the next test, the target named is T8, cathepsin L (CTSL1) (Homo sapiens, UniProt P07711).
T8 construct: We treated membrane preparations of the human innate immune (monocytic) cell line THP-1 with the bgc35 product Phe-Phe-H; endogenous in cells; host or cells: THP-1 membrane fraction
The test can be described thus: competitive isoTOP-ABPP, blockade of IA-alkyne labeling, cathepsin L. The class given is binding. Particulars: THP-1 membranes, 250 nM Phe-Phe-H.
Source text: as §2

Setting [2] is: THP-1 and other human cell proteomes (Ramos, H1975), 25 μM Phe-Phe-H.
Setting [3] is: THP-1 membranes, 250 nM Phe-Phe-H.

The structures appear in SMILES notation. Residues, ends and D or L forms follow the SMILES beside them. *: point of attachment. Octanoyl = CCCCCCCC(=O)*

T6 sequence (P53634 25-463): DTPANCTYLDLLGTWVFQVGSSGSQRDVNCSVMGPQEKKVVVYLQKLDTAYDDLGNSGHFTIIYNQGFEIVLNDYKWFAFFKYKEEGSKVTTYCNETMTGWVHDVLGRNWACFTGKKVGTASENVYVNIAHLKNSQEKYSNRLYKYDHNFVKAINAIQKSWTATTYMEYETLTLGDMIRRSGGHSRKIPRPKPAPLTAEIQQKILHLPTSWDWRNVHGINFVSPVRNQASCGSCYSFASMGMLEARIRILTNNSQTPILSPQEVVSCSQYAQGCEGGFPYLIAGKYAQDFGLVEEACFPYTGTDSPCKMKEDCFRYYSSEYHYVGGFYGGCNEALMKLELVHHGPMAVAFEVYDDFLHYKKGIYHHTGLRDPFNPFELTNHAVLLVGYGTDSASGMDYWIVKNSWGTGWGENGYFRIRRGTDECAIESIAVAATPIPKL
T7 sequence (P25774 115-331): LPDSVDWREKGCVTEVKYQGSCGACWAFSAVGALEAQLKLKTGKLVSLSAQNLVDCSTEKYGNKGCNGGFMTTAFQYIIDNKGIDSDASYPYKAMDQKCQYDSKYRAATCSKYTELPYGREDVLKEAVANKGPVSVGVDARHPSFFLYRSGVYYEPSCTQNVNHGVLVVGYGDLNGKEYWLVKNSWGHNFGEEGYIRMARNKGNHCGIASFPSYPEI
T3 sequence (Q9UBR2 62-303): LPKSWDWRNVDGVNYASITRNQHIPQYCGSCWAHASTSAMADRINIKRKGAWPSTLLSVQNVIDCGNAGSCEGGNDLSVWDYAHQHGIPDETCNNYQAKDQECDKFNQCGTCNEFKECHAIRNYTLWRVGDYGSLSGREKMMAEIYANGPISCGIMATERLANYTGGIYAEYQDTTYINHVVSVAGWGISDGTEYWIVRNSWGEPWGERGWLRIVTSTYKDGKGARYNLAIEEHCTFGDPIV
T2 sequence (P25774 115-331): as the sequence (P25774 115-331) above
T1 sequence (P07711 114-333): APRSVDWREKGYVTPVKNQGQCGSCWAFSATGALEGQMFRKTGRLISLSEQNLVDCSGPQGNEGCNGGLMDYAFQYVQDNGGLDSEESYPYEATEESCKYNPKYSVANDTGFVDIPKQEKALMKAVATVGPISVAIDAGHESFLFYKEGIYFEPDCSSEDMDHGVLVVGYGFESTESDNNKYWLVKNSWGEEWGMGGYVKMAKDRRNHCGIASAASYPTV
T8 sequence (P07711 114-333): as above

Turning to `CCCCCCCC(=O)N[C@@H](CCSC)C(=O)N[C@H](C=O)Cc1ccccc1` [Compound 16, N-octanoyl-Met-Phe-H] (Octanoyl-Met-Phe-aldehyde), on cathepsin L, the “inhibitory activity (IC50) against cathepsin L” value was “undetectable activity”. Further, at cathepsin S, the IC50 is 13 nM.
For the compound `N[C@@H](Cc1ccccc1)C(=O)N[C@H](C=O)Cc1ccccc1` [Phe-Phe-H] (H-Phe-Phe-aldehyde), the “heavy/light MS1 ratio (R value), CTSZ” value is greater than 5 on cathepsin Z (CTSZ) (setting [2]) and less than 2.0 at cathepsin Z (CTSZ) (setting [3]). On cathepsin B (CTSB), the “heavy/light MS1 ratio (R value), CTSB” value is less than 2.0. The “heavy/light MS1 ratio (R value), CTSH” value at cathepsin H (CTSH) is less than 2.0. Also, in [1], the “heavy/light MS1 ratio (R value), additional (non-cathepsin) cysteines” value is less than 2.0. Also, the “heavy/light MS1 ratio (R value), CTSC” value on cathepsin C (CTSC) (setting [2]) was greater than 5. Moreover, the “heavy/light MS1 ratio (R value), CTSC catalytic cysteine Cys258” value on cathepsin C (CTSC) (setting [3]) was greater than 2.78. Besides, the “heavy/light MS1 ratio (R value), CTSS” value at cathepsin S (CTSS) (setting [2]) is on record as greater than 5; at cathepsin S (CTSS) (setting [3]), less than 2.0. Besides, the “heavy/light MS1 ratio (R value), CTSL1 catalytic cysteine Cys138” value at cathepsin L (CTSL1) is greater than 20.
